Data reported in ChEMBL document CHEMBL1201862, “PubChem BioAssay data set” (2004).
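Five concentrations, 48 hours, 96-well plates. GI50 = concentration required for 50% inhibition of growth.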 Calls of active or inactive are those of the source. Rule as the data show it: active = GI50 up to about 1.1 µM and inactive = higher.

Legend:
Test in all cases: growth of human tumour cells (NCI), 48 h
UACC-62 = test system: UACC-62
A498 = test system: A498
HOP-92 = test system: HOP-92
MDA-MB-231 = test system: MDA-MB-231
SK-OV-3 = test system: SK-OV-3
T47D = test system: T47D
ACHN = test system: ACHN
K562 = test system: K562
U-251 = test system: U-251
IGROV-1 = test system: IGROV-1
DU-145 = test system: DU-145
SF-268 = test system: SF-268
A549 = test system: A549
NCI/ADR-RES = test system: NCI/ADR-RES
SF-539 = test system: SF-539
Hs-578T = test system: Hs-578T
EKVX = test system: EKVX
HCC 2998 = test system: HCC 2998
MOLT-4 = test system: MOLT-4
LOX IMVI = test system: LOX IMVI

SMILES	GI50 (UACC-62)	GI50 (A498)	GI50 (HOP-92)	GI50 (MDA-MB-231)	GI50 (SK-OV-3)	GI50 (T47D)	GI50 (ACHN)	GI50 (K562)	GI50 (U-251)	GI50 (IGROV-1)	GI50 (DU-145)	GI50 (SF-268)	GI50 (A549)	GI50 (NCI/ADR-RES)	GI50 (SF-539)	GI50 (Hs-578T)	GI50 (EKVX)	GI50 (HCC 2998)	GI50 (MOLT-4)	GI50 (LOX IMVI)
OCCN(CO)CO	> 100 µM (inactive)	> 100 µM (inactive)	> 100 µM (inactive)	> 100 µM (inactive)	> 100 µM (inactive)	> 100 µM (inactive)	> 100 µM (inactive)	> 100 µM (inactive)	> 100 µM (inactive)	> 100 µM (inactive)	> 100 µM (inactive)	> 100 µM (inactive)	> 100 µM (inactive)	> 100 µM (inactive)	> 100 µM (inactive)	> 100 µM (inactive)	> 100 µM (inactive)	> 100 µM (inactive)	–	–
CCCCCC(O)C(O)CCC[C@H](O)[C@H]1CC[C@H]([C@H]2CC[C@H]([C@H](O)CCCCCCCCCCCCC3=C[C@H](C)OC3=O)O2)O1 (some centres undefined)	1.71 µM (inactive)	2.65 µM (inactive)	23.4 µM (inactive)	4.32 µM (inactive)	–	7.19 µM (inactive)	1.59 µM (inactive)	1.38 µM (inactive)	3.73 µM (inactive)	3.24 µM (inactive)	9.18 µM (inactive)	1.83 µM (inactive)	2.21 µM (inactive)	0.853 µM (active)	5.7 µM (inactive)	2.91 µM (inactive)	2.62 µM (inactive)	11 µM (inactive)	2.32 µM (inactive)	1.21 µM (inactive)
CC1(CC2=C(C(=O)NCCO[Si](C)(C)C(C)(C)C)C3(OCCO3)C2=O)OCCO1	> 100 µM (inactive)	> 100 µM (inactive)	> 100 µM (inactive)	> 100 µM (inactive)	> 100 µM (inactive)	59.8 µM (inactive)	> 100 µM (inactive)	–	> 100 µM (inactive)	92.7 µM (inactive)	> 100 µM (inactive)	> 100 µM (inactive)	> 100 µM (inactive)	> 100 µM (inactive)	> 100 µM (inactive)	> 100 µM (inactive)	> 100 µM (inactive)	–	61.1 µM (inactive)	57.5 µM (inactive)
C=CCOc1ccc(C(=N/NC(=O)c2ccccc2)/N=N/c2ccccc2)cc1OC	71.1 µM (inactive)	> 100 µM (inactive)	30.1 µM (inactive)	70.6 µM (inactive)	–	24 µM (inactive)	> 100 µM (inactive)	–	79.4 µM (inactive)	> 100 µM (inactive)	> 100 µM (inactive)	> 100 µM (inactive)	> 100 µM (inactive)	84.3 µM (inactive)	> 100 µM (inactive)	70.8 µM (inactive)	> 100 µM (inactive)	37.5 µM (inactive)	42.6 µM (inactive)	42.1 µM (inactive)
C=C1C(=O)OC2C1CC(OC(C)=O)/C(C)=C/CCC1(C)OC21 (centres undefined)	> 100 µM (inactive)	–	> 100 µM (inactive)	> 100 µM (inactive)	> 100 µM (inactive)	> 100 µM (inactive)	> 100 µM (inactive)	> 100 µM (inactive)	> 100 µM (inactive)	> 100 µM (inactive)	> 100 µM (inactive)	> 100 µM (inactive)	> 100 µM (inactive)	> 100 µM (inactive)	> 100 µM (inactive)	> 100 µM (inactive)	> 100 µM (inactive)	> 100 µM (inactive)	> 100 µM (inactive)	> 100 µM (inactive)
O=C(O)c1ccccc1/C=N/N=C1c2ccccc2-c2ccccc21	44.9 µM (inactive)	68.4 µM (inactive)	35.3 µM (inactive)	59 µM (inactive)	44.9 µM (inactive)	30.7 µM (inactive)	45.1 µM (inactive)	32.1 µM (inactive)	22 µM (inactive)	43.3 µM (inactive)	42.7 µM (inactive)	21.3 µM (inactive)	31.6 µM (inactive)	52.8 µM (inactive)	27.9 µM (inactive)	3.94 µM (inactive)	29 µM (inactive)	–	22.5 µM (inactive)	37.7 µM (inactive)
CN(C)C(=S)SCC(=O)Nc1ccccc1	> 100 µM (inactive)	> 100 µM (inactive)	> 100 µM (inactive)	> 100 µM (inactive)	> 100 µM (inactive)	> 100 µM (inactive)	> 100 µM (inactive)	> 100 µM (inactive)	> 100 µM (inactive)	> 100 µM (inactive)	> 100 µM (inactive)	> 100 µM (inactive)	> 100 µM (inactive)	> 100 µM (inactive)	–	> 100 µM (inactive)	> 100 µM (inactive)	> 100 µM (inactive)	> 100 µM (inactive)	> 100 µM (inactive)
O=c1oc2c(Br)c(O)c(Br)cc2c2ccccc12	20.1 µM (inactive)	25.8 µM (inactive)	22.5 µM (inactive)	16.9 µM (inactive)	–	25 µM (inactive)	30.8 µM (inactive)	23.1 µM (inactive)	32.1 µM (inactive)	30.6 µM (inactive)	29.3 µM (inactive)	20.8 µM (inactive)	32.5 µM (inactive)	12.2 µM (inactive)	23.9 µM (inactive)	20.7 µM (inactive)	23.2 µM (inactive)	33.3 µM (inactive)	27.4 µM (inactive)	23.8 µM (inactive)
